Assays:
[1] = target: T1, Retinoic acid receptor gamma (Homo sapiens, UniProt P13631); experiment: Dissociation constant for Retinoic acid receptor gamma; Not an active agonist; assay type: functional
T1 sequence (P13631 whole entry): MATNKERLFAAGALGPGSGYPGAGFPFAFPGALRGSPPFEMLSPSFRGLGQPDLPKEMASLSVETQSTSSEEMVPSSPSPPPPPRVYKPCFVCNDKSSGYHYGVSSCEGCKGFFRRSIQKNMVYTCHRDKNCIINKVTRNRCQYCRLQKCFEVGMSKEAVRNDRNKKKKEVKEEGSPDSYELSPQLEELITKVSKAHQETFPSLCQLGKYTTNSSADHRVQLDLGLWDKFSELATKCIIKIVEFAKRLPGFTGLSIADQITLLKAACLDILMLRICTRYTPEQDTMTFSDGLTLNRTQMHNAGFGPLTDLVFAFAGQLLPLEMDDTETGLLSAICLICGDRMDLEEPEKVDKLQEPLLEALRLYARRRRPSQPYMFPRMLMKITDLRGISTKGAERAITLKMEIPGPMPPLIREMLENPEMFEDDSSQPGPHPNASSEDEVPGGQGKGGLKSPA

[2] = target: T2, Retinoic acid receptor RXR-alpha (Homo sapiens, UniProt P19793); experiment: Dissociation constant for Retinoid X receptor alpha
T2 sequence (P19793 whole entry): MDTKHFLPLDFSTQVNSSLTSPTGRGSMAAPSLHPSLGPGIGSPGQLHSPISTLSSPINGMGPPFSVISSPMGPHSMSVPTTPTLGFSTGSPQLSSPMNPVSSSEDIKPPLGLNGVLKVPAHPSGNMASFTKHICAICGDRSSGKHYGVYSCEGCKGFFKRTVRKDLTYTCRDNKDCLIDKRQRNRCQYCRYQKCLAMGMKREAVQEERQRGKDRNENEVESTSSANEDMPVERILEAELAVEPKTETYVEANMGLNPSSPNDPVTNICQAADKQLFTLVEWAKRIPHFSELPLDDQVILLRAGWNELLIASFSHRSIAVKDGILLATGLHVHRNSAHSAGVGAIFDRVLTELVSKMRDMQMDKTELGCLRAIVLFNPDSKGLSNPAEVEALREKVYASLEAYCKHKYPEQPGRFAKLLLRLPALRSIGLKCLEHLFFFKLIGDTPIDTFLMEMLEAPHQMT

[3] = target: T1, Retinoic acid receptor gamma

Row | Kd [1] | Kd [2] [nM] | Kd [3] [nM] | SMILES
1 | Not Active | – | – | Cc1cc2c(cc1-c1cc(/C=C3\SC(=O)NC3=O)ccc1OC(F)(F)F)C(C(C)C)=CCC2(C)C
2 | – | 32 | 645 | C/C(=C\c1ccc(C(=O)O)cc1)c1cc2c(cc1C)C(C)(C)CCC2(C)C
